Common to all, as to assay type: cell-based
The target of assay [1] is T1, Brd4 (L) (Homo sapiens, UniProt O60885).
T1 construct: endogenous in cells; host or cells: HEK293, HeLa
In words: Concentration-dependent BET degradation, immunoblot, HEK293 cells. As to conditions: 6 h treatment, 1 nM-10 μM; for Dmax: read-out: Dmax (%) maximum degradation observed. The method, then: (§1) Cell culture. HeLa (CCL-2) and HEK293 (CRL-1573) cells were purchased from ATCC and cultured in DMEM medium (Gibco) supplemented with 10% FBS, 100 μg/mL penicillin/streptomycin and L-glutamine. Cells were grown at 37° C. and 5% CO2, and were kept no longer than 30 passages. All cell lines were routinely tested for mycoplasma contamination using MycoAlert kit from Lonza.
(§2) Immunoblotting. proteins were separated by SDS-PAGE on NuPage 4-12% Bis-Tris gels, followed by transfer to Amersham Protran 0.45 NC nitrocellulose membrane (GE Healthcare) using wet transfer. Membranes were blocked using 5% w/v milk in Tris-buffered saline (TBS) with 0.1% Tween-20. Blots were probed (overnight at 4° C.) using anti-Brd2 (Abcam ab139690, 1:2,000 dilution), anti-Brd3 (Abcam ab50818, 1:500 dilution), and anti-Brd4 (Abcam ab128874, 1:1,000 dilution) primary antibodies, as appropriate. The next day, blots were washed with TBST and incubated (1 hr at RT) with anti-Tubulin hFAB-rhodamine (BioRad, 12004166) primary antibody, and either anti-rabbit IRDye 800CW (Licor 1:10,000 dilution) or anti-mouse IRDye 800CW (Licor 1:10,000 dilution) secondary antibody. Blots were developed using a Bio-Rad ChemiDoc MP Imaging System, and band quantification was performed using Image Studio software (LiCor). Band intensities were normalized to the tubulin loading control and reported as % of the average 0.1% DMSO vehicle intensity. Degradation data was plotted and analysed using Prism (Graphpad, version 8).
(§3) HeLa (5×10^5) and HEK293 (1×10^6) cells were seeded in standard 6-well plates (2 mL medium) overnight before treatment with compounds at the desired concentration (1 nM-10 μM), with a final DMSO concentration of 0.1% v/v. After 6 h treatment time, cells were washed with DPBS (Gibco) and lysed using 85 μL RIPA buffer (Sigma-Aldrich) supplemented with cOmplete Mini EDTA-free protease inhibitor cocktail (Roche) and benzonase. Lysates were clarified by centrifugation (20,000g, 10 min, 4° C.) and the total protein content of the supernatant was quantified using a Bradford colorimetric assay. Samples were prepared using equal amounts of total protein and LDS sample buffer (Invitrogen.
(§4) Representative blots in FIG. 3 show depletion of Brd2, Brd3 and Brd4 protein levels following treatment with increasing concentrations of representative compounds. Band intensities were normalized to the β-tubulin loading control and reported as % of the average 0.1% DMSO vehicle intensity, with each point representing mean±SEM of two independent experiments (n=2). Degradation data was plotted and analysed using Prism (Graphpad, version 8)

Assay [2] concerns the target T2, Brd4 (S) (Homo sapiens, UniProt O60885).
T2 construct: endogenous in cells; host or cells: HEK293, HeLa
Nature of the assay: Time-dependent BET degradation, immunoblot, HEK293 cells. Details: dose or concentration left out as unconfirmed. As to conditions: timecourse 0-8 h. On the procedure:
as §1, §2
as §3, with “(3×10^5)” for “(5×10^5)”, “(0.5×10^6)” for “(1×10^6)”, “1 μM concentration,” for “the desired concentration (1 nM-10 μM),”, “incubation for the desired time (0-8 h),” for “6 h treatment time,”, “(20,000 g,” for “(20,000g,”, “(Invitrogen).” for “(Invitrogen.”
(§5) Representative blots in FIG. 4 show depletion of Brd2, Brd3 and Brd4 protein levels following 1 μM treatment at various time points with representative compounds. Band intensities were normalized to the β-tubulin loading control and reported as % of the average 0.1% DMSO vehicle intensity, with each point representing mean±SEM of two independent experiments (n=2). Degradation data was plotted and analysed using Prism (Graphpad, version 8).
(§6) T½ (h) is the time required to deplete 50% of the protein relative to DMSO

In assay [3] the target is T1, Brd4 (L). The assay is described as above. Details: dose or concentration left out as unconfirmed. Particulars: timecourse 0-8 h. The method, then: as §1, §2
as §3, with “(3×10^5)” for “(5×10^5)”, “(0.5×10^6)” for “(1×10^6)”, “1 μM concentration,” for “the desired concentration (1 nM-10 μM),”, “incubation for the desired time (0-8 h),” for “6 h treatment time,”, “(20,000 g,” for “(20,000g,”, “(Invitrogen).” for “(Invitrogen.”
as §5, §6

Assay [4] addresses T2, Brd4 (S). Nature of the assay: Concentration-dependent BET degradation, immunoblot, HeLa cells. As to conditions: 6 h treatment, 1 nM-10 μM; for Dmax: read-out: Dmax (%) maximum degradation observed. The method, then:
as §1, §2, §3, §4

Assay [5] addresses T1, Brd4 (L). Described as above. Particulars: 6 h treatment, 1 nM-10 μM; for Dmax: read-out: Dmax (%) maximum degradation observed. On the procedure: as §1, §2, §3, §4
Assay [6] concerns the target T3, Brd3 (Homo sapiens, UniProt Q15059). In words: Time-dependent BET degradation, immunoblot, HEK293 cells. Details: endogenous in cells; host or cells: HEK293. Particulars: HEK293, Brd3, 1 μM, timecourse 0-8 h. The method, then: as §1, §2
as §3, with “(3×10^5)” for “(5×10^5)”, “(0.5×10^6)” for “(1×10^6)”, “1 μM concentration,” for “the desired concentration (1 nM-10 μM),”, “incubation for the desired time (0-8 h),” for “6 h treatment time,”, “(20,000 g,” for “(20,000g,”, “(Invitrogen).” for “(Invitrogen.”
as §5, §6

In assay [7] the target is T4, Brd2 (Homo sapiens, UniProt P25440). The assay is described as above. As to conditions: HEK293, Brd2, 1 μM, timecourse 0-8 h. Details: endogenous in cells; host or cells: HEK293. The method, then:
as §1, §2
as §3, with “(3×10^5)” for “(5×10^5)”, “(0.5×10^6)” for “(1×10^6)”, “1 μM concentration,” for “the desired concentration (1 nM-10 μM),”, “incubation for the desired time (0-8 h),” for “6 h treatment time,”, “(20,000 g,” for “(20,000g,”, “(Invitrogen).” for “(Invitrogen.”
as §5, §6

The target of assay [8] is T2, Brd4 (S). In words: Time-dependent BET degradation, immunoblot, HeLa cells. Details: dose or concentration left out as unconfirmed. As to conditions: timecourse 0-8 h. On the procedure: as §1, §2
as §3, with “(3×10^5)” for “(5×10^5)”, “(0.5×10^6)” for “(1×10^6)”, “1 μM concentration,” for “the desired concentration (1 nM-10 μM),”, “incubation for the desired time (0-8 h),” for “6 h treatment time,”, “(20,000 g,” for “(20,000g,”, “(Invitrogen).” for “(Invitrogen.”
as §5, §6

In assay [9] the target is T1, Brd4 (L). Described as above. Details: dose or concentration left out as unconfirmed. As to conditions: timecourse 0-8 h. The method, then:
as §1, §2
as §3, with “(3×10^5)” for “(5×10^5)”, “(0.5×10^6)” for “(1×10^6)”, “1 μM concentration,” for “the desired concentration (1 nM-10 μM),”, “incubation for the desired time (0-8 h),” for “6 h treatment time,”, “(20,000 g,” for “(20,000g,”, “(Invitrogen).” for “(Invitrogen.”
as §5, §6

For assay [10], the target named is T3, Brd3. Described as above. Details: endogenous in cells; host or cells: HeLa. Particulars: Brd3, 1 μM, timecourse 0-8 h. On the procedure:
as §1, §2
as §3, with “(3×10^5)” for “(5×10^5)”, “(0.5×10^6)” for “(1×10^6)”, “1 μM concentration,” for “the desired concentration (1 nM-10 μM),”, “incubation for the desired time (0-8 h),” for “6 h treatment time,”, “(20,000 g,” for “(20,000g,”, “(Invitrogen).” for “(Invitrogen.”
as §5, §6

The target in assay [11] is T4, Brd2. The assay is described as above. Details: endogenous in cells; host or cells: HeLa. Particulars: Brd2, 1 μM, timecourse 0-8 h. On the procedure:
as §1, §2
as §3, with “(3×10^5)” for “(5×10^5)”, “(0.5×10^6)” for “(1×10^6)”, “1 μM concentration,” for “the desired concentration (1 nM-10 μM),”, “incubation for the desired time (0-8 h),” for “6 h treatment time,”, “(20,000 g,” for “(20,000g,”, “(Invitrogen).” for “(Invitrogen.”
as §5, §6

Assay [12] has as its target T3, Brd3. In words: Concentration-dependent BET degradation, immunoblot, HeLa cells. Details: endogenous in cells; host or cells: HeLa. Particulars: Brd3, 6 h treatment, 1 nM-10 μM; for Dmax: read-out: Dmax (%) maximum degradation observed. The method, then: as §1, §2, §3, §4
In assay [13] the target is T4, Brd2. Described as above. Details: endogenous in cells; host or cells: HeLa. As to conditions: Brd2, 6 h treatment, 1 nM-10 μM; for Dmax: read-out: Dmax (%) maximum degradation observed. On the procedure:
as §1, §2, §3, §4

T3 sequence (Q15059 whole entry): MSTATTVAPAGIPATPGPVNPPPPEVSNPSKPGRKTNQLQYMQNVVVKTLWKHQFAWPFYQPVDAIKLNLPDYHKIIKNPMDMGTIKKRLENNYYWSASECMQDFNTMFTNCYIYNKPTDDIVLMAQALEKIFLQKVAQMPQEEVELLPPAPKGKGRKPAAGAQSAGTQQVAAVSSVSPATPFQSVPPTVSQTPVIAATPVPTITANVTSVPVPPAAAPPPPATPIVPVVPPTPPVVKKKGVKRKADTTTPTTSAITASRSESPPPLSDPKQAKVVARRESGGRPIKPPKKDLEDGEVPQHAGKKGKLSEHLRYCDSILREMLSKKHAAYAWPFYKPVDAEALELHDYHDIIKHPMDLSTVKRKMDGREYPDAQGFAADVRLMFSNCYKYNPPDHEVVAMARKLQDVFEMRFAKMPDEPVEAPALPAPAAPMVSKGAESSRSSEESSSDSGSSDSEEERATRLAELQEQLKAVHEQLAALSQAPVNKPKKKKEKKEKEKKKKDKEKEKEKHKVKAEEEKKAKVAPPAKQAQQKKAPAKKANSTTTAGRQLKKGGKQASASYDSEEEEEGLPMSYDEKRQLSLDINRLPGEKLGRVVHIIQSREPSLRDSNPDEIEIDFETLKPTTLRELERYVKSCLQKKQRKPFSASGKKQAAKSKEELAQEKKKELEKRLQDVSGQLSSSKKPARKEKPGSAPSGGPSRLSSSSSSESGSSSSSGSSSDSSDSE
T4 sequence (P25440 whole entry): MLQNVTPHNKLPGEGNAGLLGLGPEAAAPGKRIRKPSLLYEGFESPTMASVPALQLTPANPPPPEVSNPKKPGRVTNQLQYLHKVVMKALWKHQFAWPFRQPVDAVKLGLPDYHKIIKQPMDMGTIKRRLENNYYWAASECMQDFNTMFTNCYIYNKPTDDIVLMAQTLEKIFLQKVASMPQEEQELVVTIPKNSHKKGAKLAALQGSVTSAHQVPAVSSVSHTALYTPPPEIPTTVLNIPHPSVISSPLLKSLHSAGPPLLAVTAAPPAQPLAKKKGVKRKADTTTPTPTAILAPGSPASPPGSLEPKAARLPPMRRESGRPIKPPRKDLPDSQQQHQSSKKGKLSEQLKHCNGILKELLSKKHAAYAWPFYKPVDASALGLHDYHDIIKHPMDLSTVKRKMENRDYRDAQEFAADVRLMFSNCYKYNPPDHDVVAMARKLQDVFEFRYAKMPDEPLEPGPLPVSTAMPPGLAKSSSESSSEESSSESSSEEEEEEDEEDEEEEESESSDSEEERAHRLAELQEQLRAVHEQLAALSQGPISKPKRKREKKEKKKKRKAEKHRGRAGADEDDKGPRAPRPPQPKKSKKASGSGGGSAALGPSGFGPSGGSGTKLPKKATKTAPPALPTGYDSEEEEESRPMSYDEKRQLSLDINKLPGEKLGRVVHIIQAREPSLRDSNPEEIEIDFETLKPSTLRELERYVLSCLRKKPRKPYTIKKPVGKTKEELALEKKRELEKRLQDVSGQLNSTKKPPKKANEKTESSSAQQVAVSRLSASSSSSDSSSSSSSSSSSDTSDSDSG

For the molecule `CCCC(NC(=O)/C(C#N)=C/c1nccs1)c1ccc(OCCOCCOCCOCCOCCOCCOCCNC(=O)c2ccc(-c3ccc4c(c3)[C@H](Nc3ccc(Cl)cc3)C[C@H](C)N4C(C)=O)cc2)cc1` (stereo partly drawn) [Example 05IB9], the DC50 in assay [1] is at most 50 nM; in [4] it was at most 50 nM; in assay [5], at most 50 nM; in assay [12], at most 50 nM; in assay [13] it was 51 to 500 nM. Further, the Dmax is at least 71% in assay [1]; 96% in assay [2]; 96% in [3]; at least 71% in assay [4]; at least 71% in [5]; 100% in assay [8]. Also, the Dmax was 100% in assay [9], 51 to 70% in [12] and at least 71% in assay [13]. Further, the greatest degradation seen (Dmax) at 1 µM in assay [6] is 60%; in assay [7], 73%; in assay [10], 80%; in [11], 76%.
Turning to `CCCC(NC(=O)/C(C#N)=C/c1cccc(Br)n1)c1ccc(OCCOCCOCCOCCOCCOCCOCCNC(=O)c2ccc(-c3ccc4c(c3)[C@H](Nc3ccc(Cl)cc3)C[C@H](C)N4C(C)=O)cc2)cc1` (stereo partly drawn) [Example 05IB6], the DC50 in [1] is at most 50 nM; in [4] it was at most 50 nM; in assay [5], 51 to 500 nM; in [12], at most 50 nM; in assay [13], at most 50 nM. Also, the Dmax was at least 71% in assay [1]; 97% in assay [2]; 100% in assay [3]; at least 71% in assay [4]; at least 71% in [5]; 100% in assay [8]. Further, the Dmax in [9] was 100%; in assay [12], at least 71%; in assay [13], at least 71%. The Dmax at 1 µM in assay [6] was determined as 74%; in assay [7], 76%; in assay [10] it was 90%; in assay [11] it was 79%.
With `CCCC(NC(=O)/C(C#N)=C/c1cccc(Br)n1)c1ccc(OCC=NOCC(=O)NCCOCCOCCOCCOCCOCCNC(=O)c2ccc3c(c2)[C@H](Nc2ccc(Cl)cc2)C[C@H](C)N3C(C)=O)cc1` (stereo partly drawn) [Example 05IB3], the half-maximal degradation concentration (DC50) in assay [1] is at most 50 nM; in assay [4] it was at most 50 nM; in [5], 51 to 500 nM; in assay [12] it was 51 to 500 nM; in assay [13], 51 to 500 nM. For the same molecule, the greatest degradation seen (Dmax) in [1] is at least 71%; in [2], 100%; in [3], 96%; in assay [4], at least 71%; in assay [5] it was at least 71%; in assay [8] it was 100%. The maximal degradation (Dmax) in assay [9] is 79%; in assay [12] it was at least 71%; in assay [13], at least 71%. Further, the greatest degradation seen (Dmax) at 1 µM stood at 100% in [6], 83% in assay [7], 100% in assay [10] and 54% in [11].

(Values after patent US20210283139A1, “BIFUNCTIONAL MOLECULES FOR TARGETING UCHL5” (AMPHISTA THERAPEUTICS LTD, priority 2018, published 2021).)
